*1 amine or outer side, *2 acyl side, *3 side chain or, on linkers, in order; H or OH if unused. Where a SMILES comes first, the peptide text is derived from it. Bridges are numbered along the chain shown (N, C = ends). [ ]: non-standard residue; d: D form. The star is where a group is joined. X1 = COc1cc2cc(c1Cl)N(C)C(=O)C[C@H](OC(=O)[C@H](C)N(C)C(=O)CCSSC(C)CCC(=O)*)[C@]1(C)O[C@H]1[C@H](C)[C@@H]1C[C@@](O)(NC(=O)O1)[C@H](OC)/C=C/C=C(\C)C2; 1Nal = N[C@@H](Cc1cccc2ccccc12)C(=O)O; TBMB = c1c(C[*:1])cc(C[*:3])cc1C[*:2]; Tle = CC(C)(C)[C@H](N)C(=O)O; βAla = NCCC(=O)O; Sar = CNCC(=O)O
How the values were obtained:
MDA-MB-231 xenograft = test: In vivo efficacy of BT1718 in MDA-MB-231 xenograft; set-up: species or system Mus Musculus; details: after 2-3 weeks 10 mg/kg biw
Procedure: (§1) The objective of this study was to evaluate the in vivo anti-tumor efficacy of BT1718in treatment of HT1080, NCI-H292, NCI-H1975, MDA-MB-231, HCC1806, RPMI2650, HCT-15, HT-29 and SNU-16 xenograft in BALB/c nude mice.
(§2) The HT1080, NCI-H292, NCI-H1975, MDA-MB-231, HCC1806, RPMI2650, HCT-15, HT-29 and SNU-16 tumor cells were maintained in vitro as a monolayer culture in medium supplemented with 10% heat inactivated fetal bovine serum at 37° C. in an […]. The tumor cells will be routinely subcultured twice weekly by trypsin-EDTA treatment. The cells growing in an exponential growth phase will be harvested and counted for tumor inoculation.
(§3) Mouse was inoculated subcutaneously at the right flank with tumor cells for tumor development. The animals were randomized and treatment was started when the average tumor reaches certain volume for the efficacy study, the inoculating cell amounts and starting tumor size were shown as below in Table 9. The test article administration and the animal numbers in each group were shown in the experimental design in Table 10.
(§4) All the procedures related to animal handling, care and the treatment in the study were performed according to the guidelines of the Association for Assessment and Accreditation of Laboratory Animal Care (AAALAC). At the time of routine monitoring, the animals were daily checked for any effects of tumor growth and treatments on normal behavior such as mobility, food and water consumption (by looking only), body weight gain/loss (body weights were measured every day), eye/hair matting and any other abnormal effect as stated in the protocol. Death and observed clinical signs were recorded on the basis of the numbers of animals within each subset.
(§5) The major endpoint was to see if the tumor growth could be delayed or mice could be cured. Tumor size was measured three times weekly in two dimensions using a caliper, and the volume was expressed in mm^3 using the formula: V=0.5 a×b^2 where a and b are the long and short diameters of the tumor, respectively. The tumor size was then used for calculations of T/C value. The T/C value (in percent) is an indication of antitumor effectiveness; T and C are the mean volumes of the treated and control groups, respectively, on a given day.
(§6) TGI was calculated for each group using the formula: TGI (%)=[1−(Ti−T0)/(Vi−V0)]×100; Ti is the average tumor volume of a treatment group on a given day, T0 is the average tumor volume of the treatment group on the day of treatment start, Vi is the average tumor volume of the vehicle control group on the same day with Ti, and V0 is the average tumor volume of the vehicle group on the day of treatment start.
(§7) Summary statistics, including mean and the standard error of the mean (SEM), are provided for the tumor volume of each group at each time point.
(§8) Statistical analysis of difference in tumor volume among the groups was conducted on the data obtained at the best therapeutic time point after the final dose.
(§9) A one-way ANOVA was performed to compare tumor volume among groups, and when a significant F-statistics (a ratio of treatment variance to the error variance) was obtained, comparisons between groups were carried out with Games-Howell test. All data were analyzed using Prism. P<0.05 was considered to be statistically significant.

HT-29 xenograft = test: In vivo efficacy of BT1718 in HT-29 xenograft; set-up: species or system Mus Musculus; key to Best response at 10 mg/kg: CR complete response; PR partial response
Procedure: as §1, §2, §3, §4, §5, §6, §7, §8, §9

SMILES: COc1cc2cc(c1Cl)N(C)C(=O)C[C@H](OC(=O)[C@H](C)N(C)C(=O)CCSSC(C)CCC(=O)NCCC(=O)N(C)CC(=O)N(C)CC(=O)N(C)CC(=O)N(C)CC(=O)N(C)CC(=O)N(C)CC(=O)N(C)CC(=O)N(C)CC(=O)N(C)CC(=O)N(C)CC(=O)N[C@@H](C)C(=O)N[C@H]1CSCc3cc4cc(c3)CSC[C@H](NC(=O)[C@@H](C)NC(=O)[C@H](Cc3cccc5ccccc35)NC(=O)[C@H](CCC(=O)O)NC(=O)[C@H](CC(N)=O)NC(=O)[C@@H](C)NC1=O)C(=O)N[C@@H](CCC(=O)O)C(=O)N[C@@H](CC(=O)O)C(=O)N[C@@H](Cc1ccccc1)C(=O)N[C@@H](Cc1ccc(O)cc1)C(=O)N[C@@H](CC(=O)O)C(=O)N[C@@H](C(C)(C)C)C(=O)N[C@H](C(N)=O)CSC4)[C@]1(C)O[C@H]1[C@H](C)[C@@H]1C[C@@](O)(NC(=O)O1)[C@H](OC)/C=C/C=C(\C)C2 (stereo partly shown) [BT1718] ({X1-βAla}-[Sar][Sar][Sar][Sar][Sar][Sar][Sar][Sar][Sar][Sar]AC[dA]NE[1Nal][dA]CEDFYD[Tle]C-NH2; linker 12-18-25 via TBMB (inferred))
- tumor volume after regression (MDA-MB-231 xenograft): below 50 mm3
- tumor response (HT-29 xenograft; 10 mg/kg biw): significant tumor inhibition effect, but didn't cause tumor regression
- Body Weight (HT-29 xenograft; 1 mpk biw, day 0): 23.0 ± 0.2 g
- Tumor Volume (HT-29 xenograft; 1 mpk biw, day 0): 160 ± 27 mm^3
- Body Weight (HT-29 xenograft; 1 mpk biw, day 2): 22.8 ± 0.2 g
- Tumor Volume (HT-29 xenograft; 1 mpk biw, day 2): 189 ± 18 mm^3
- Body Weight (HT-29 xenograft; 1 mpk biw, day 4): 22.3 ± 0.5 g
- Tumor Volume (HT-29 xenograft; 1 mpk biw, day 4): 203 ± 13 mm^3
- Body Weight (HT-29 xenograft; 1 mpk biw, day 6): 22.3 ± 0.5 g
- Tumor Volume (HT-29 xenograft; 1 mpk biw, day 6): 260 ± 18 mm^3
- Body Weight (HT-29 xenograft; 1 mpk biw, day 8): 22.3 ± 0.4 g
- Tumor Volume (HT-29 xenograft; 1 mpk biw, day 8): 273 ± 35 mm^3
- Body Weight (HT-29 xenograft; 1 mpk biw, day 11): 22.4 ± 0.7 g
- Tumor Volume (HT-29 xenograft; 1 mpk biw, day 11): 453 ± 45 mm^3
- Body Weight (HT-29 xenograft; 1 mpk biw, day 13): 22.3 ± 0.7 g
- Tumor Volume (HT-29 xenograft; 1 mpk biw, day 13): 533 ± 43 mm^3
- Body Weight (HT-29 xenograft; 3 mpk biw, day 0): 22.2 ± 0.2 g
- Tumor Volume (HT-29 xenograft; 3 mpk biw, day 0): 159 ± 36 mm^3
- Body Weight (HT-29 xenograft; 3 mpk biw, day 2): 22.1 ± 0.4 g
- Tumor Volume (HT-29 xenograft; 3 mpk biw, day 2): 178 ± 41 mm^3
- Body Weight (HT-29 xenograft; 3 mpk biw, day 4): 22.0 ± 0.5 g
- Tumor Volume (HT-29 xenograft; 3 mpk biw, day 4): 214 ± 51 mm^3
- Body Weight (HT-29 xenograft; 3 mpk biw, day 6): 22.4 ± 0.6 g
- Tumor Volume (HT-29 xenograft; 3 mpk biw, day 6): 268 ± 70 mm^3
- Body Weight (HT-29 xenograft; 3 mpk biw, day 8): 22.6 ± 0.6 g
- Tumor Volume (HT-29 xenograft; 3 mpk biw, day 8): 297 ± 87 mm^3
- Body Weight (HT-29 xenograft; 3 mpk biw, day 11): 22.0 ± 0.4 g
- Tumor Volume (HT-29 xenograft; 3 mpk biw, day 11): 472 ± 129 mm^3
- Body Weight (HT-29 xenograft; 3 mpk biw, day 13): 22.2 ± 0.3 g
- Tumor Volume (HT-29 xenograft; 3 mpk biw, day 13): 616 ± 145 mm^3
- Body Weight (HT-29 xenograft; 10 mpk biw, day 0): 24.6 ± 1.2 g
- Tumor Volume (HT-29 xenograft; 10 mpk biw, day 0): 164 ± 32 mm^3
- Body Weight (HT-29 xenograft; 10 mpk biw, day 2): 23.6 ± 1.2 g
- Tumor Volume (HT-29 xenograft; 10 mpk biw, day 2): 177 ± 28 mm^3
- Body Weight (HT-29 xenograft; 10 mpk biw, day 4): 22.1 ± 1.5 g
- Tumor Volume (HT-29 xenograft; 10 mpk biw, day 4): 195 ± 36 mm^3
- Body Weight (HT-29 xenograft; 10 mpk biw, day 6): 22.9 ± 1.5 g
- Tumor Volume (HT-29 xenograft; 10 mpk biw, day 6): 232 ± 54 mm^3
- Body Weight (HT-29 xenograft; 10 mpk biw, day 8): 21.2 ± 1.2 g
- Tumor Volume (HT-29 xenograft; 10 mpk biw, day 8): 198 ± 44 mm^3
- Body Weight (HT-29 xenograft; 10 mpk biw, day 11): 21.2 ± 1.7 g
- Tumor Volume (HT-29 xenograft; 10 mpk biw, day 11): 182 ± 46 mm^3
- Body Weight (HT-29 xenograft; 10 mpk biw, day 13): 21.7 ± 1.0 g
- Tumor Volume (HT-29 xenograft; 10 mpk biw, day 13): 146 ± 32 mm^3
- Best response at 10 mg/kg (HT-29 xenograft; HT-29, 10 mg/kg): PR
- TGI (HT-29 xenograft; HT-29, 1 mpk, biw, day 14): 24.0%
- Tumor Volume (HT-29 xenograft; HT-29, 1 mpk, biw, day 14): 533 ± 43 mm^3
- TGI (HT-29 xenograft; HT-29, 3 mpk, biw, day 14): 6.8%
- Tumor Volume (HT-29 xenograft; HT-29, 3 mpk, biw, day 14): 616 ± 145 mm^3
- TGI (HT-29 xenograft; HT-29, 10 mpk, biw, day 14): 103.6%
- Tumor Volume (HT-29 xenograft; HT-29, 10 mpk, biw, day 14): 146 ± 32 mm^3
- Minimally Effective Dose IV BIW (HT-29 xenograft; HT-29, dose leading to tumor-stasis): 10 mg/kg

Source: US10441663B2, “Methods for treating cancer” (Bicycle Therapeutics Limited, priority 2016, dated 2019)
